Ki and EC50 data for six compounds are collected here from patent US12723063B2, “GIPR-agonist compounds” (Eli Lilly and Company, priority 2019, dated 2026).

The pKi is −log10 of the Ki, conventionally taken in molar units. Usually EC50 stands for the concentration at which the effect is half-maximal.

One experiment deals with T1, human GLP-1R (Homo sapiens, UniProt P43220).
T1 construct: expressed in transfected cells; crude membranes
The experiment can be described thus: [125I]-GLP-1 binding, SPA with WGA beads, 0.1% bacitracin. As to conditions: geometric mean, read-out: hGLP1R Ki. In outline: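 Binding buffer was 25 mM HEPES pH 7.4 with 2.5 mM CaCl2, 1 mM MgCl2, 0.1% (w/v) bacitracin, 0.003% Tween-20 and EDTA-free protease inhibitors. Four-parameter regression gave IC50, converted to Ki (geometric mean, SEM, n independent days).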

Experiment [1] deals with T2, human glucagon receptor (GcgR) (Homo sapiens, UniProt P47871).
T2 construct: expressed in transfected cells; host or cells: HEK293
The experiment in a line: cAMP functional assay (HTRF) in HEK293 cells in presence of 0.1% casein. It is filed as cell-based. As to conditions: HEK293 cells expressing human GcgR, geometric mean, read-out: hGcgR cAMP Rel EC50 nM (SEM, n). Background: In TR-FRET formats the signal depends on donor and acceptor labels being close together.

pKi: −log10 of the molar value. *1 amine or outer side, *2 acyl side, *3 side chain or, on linkers, in order; H or OH if unused. Where a SMILES comes first, the peptide text is derived from it. Side-chain parts run from the residue outwards. [ ]: non-standard residue; d: D form. The star is where a group is joined. C20 diacid = O=C(O)CCCCCCCCCCCCCCCCCCC(=O)*; γGlu = O=C(O)[C@H](CCC(=O)[*:2])N[*:1]; αMeF = C[C@](N)(Cc1ccccc1)C(=O)O; 4Pal = N[C@@H](Cc1ccncc1)C(=O)O; αMeL = CC(C)C[C@](C)(N)C(=O)O; AEEA = NCCOCCOCC(=O)O; Aib = CC(C)(N)C(=O)O

T2 sequence (P47871 26-477): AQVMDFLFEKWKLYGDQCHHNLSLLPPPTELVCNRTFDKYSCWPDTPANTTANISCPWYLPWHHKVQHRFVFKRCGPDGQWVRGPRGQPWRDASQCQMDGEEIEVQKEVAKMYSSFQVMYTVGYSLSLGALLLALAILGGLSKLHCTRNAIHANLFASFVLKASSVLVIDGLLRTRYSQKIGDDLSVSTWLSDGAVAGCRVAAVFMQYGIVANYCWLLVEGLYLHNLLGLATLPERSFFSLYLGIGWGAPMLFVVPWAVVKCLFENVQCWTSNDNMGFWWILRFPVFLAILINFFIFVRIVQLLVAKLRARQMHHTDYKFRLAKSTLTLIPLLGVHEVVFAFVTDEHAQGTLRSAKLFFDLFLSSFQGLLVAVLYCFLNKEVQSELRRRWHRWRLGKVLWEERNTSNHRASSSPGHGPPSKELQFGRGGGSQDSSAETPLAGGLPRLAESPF
T1 sequence (P43220 24-463): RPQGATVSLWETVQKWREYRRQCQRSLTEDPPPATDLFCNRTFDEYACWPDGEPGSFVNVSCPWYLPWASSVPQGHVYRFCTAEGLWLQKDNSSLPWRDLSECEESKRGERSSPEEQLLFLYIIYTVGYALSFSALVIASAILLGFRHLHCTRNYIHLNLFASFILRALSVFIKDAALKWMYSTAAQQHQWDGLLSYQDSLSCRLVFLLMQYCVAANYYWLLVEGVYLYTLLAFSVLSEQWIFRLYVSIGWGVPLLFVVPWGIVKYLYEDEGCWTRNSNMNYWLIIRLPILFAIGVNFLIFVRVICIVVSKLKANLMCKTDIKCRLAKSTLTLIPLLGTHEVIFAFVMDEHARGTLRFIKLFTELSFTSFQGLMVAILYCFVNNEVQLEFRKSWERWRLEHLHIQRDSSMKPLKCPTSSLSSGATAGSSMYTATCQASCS

In the case of `CC[C@H](C)[C@H](NC(=O)[C@H](Cc1ccccc1)NC(=O)[C@@H](NC(=O)CNC(=O)[C@H](CCC(=O)O)NC(=O)C(C)(C)NC(=O)[C@@H](N)Cc1ccc(O)cc1)[C@@H](C)O)C(=O)N[C@@H](CO)C(=O)N[C@@H](CC(=O)O)C(=O)N[C@@H](Cc1ccc(O)cc1)C(=O)N[C@@H](CO)C(=O)N[C@H](C(=O)N[C@@](C)(CC(C)C)C(=O)N[C@@H](CC(C)C)C(=O)N[C@@H](CC(=O)O)C(=O)N[C@@H](CCCCN)C(=O)N[C@@H](CCCCNC(=O)COCCOCCNC(=O)COCCOCCNC(=O)CC[C@H](NC(=O)CCCCCCCCCCCCCCCCCCC(=O)O)C(=O)O)C(=O)N[C@@H](Cc1c[nH]cn1)C(=O)N[C@@H](CCC(N)=O)C(=O)NC(C)(C)C(=O)N[C@@H](CCC(=O)O)C(=O)N[C@@H](Cc1ccccc1)C(=O)N[C@H](C(=O)N[C@@H](CCC(=O)O)C(=O)N[C@@H](Cc1ccncc1)C(=O)N[C@@H](CC(C)C)C(=O)N[C@@H](CC(C)C)C(=O)N[C@@H](C)C(=O)N[C@H](C(=O)NCC(=O)N1CCC[C@H]1C(=O)N[C@@H](CO)C(=O)N[C@@H](CO)C(=O)NCC(=O)N[C@@H](C)C(=O)N1CCC[C@H]1C(=O)N1CCC[C@H]1C(=O)N1CCC[C@H]1C(=O)N[C@@H](CO)C(N)=O)[C@@H](C)O)C(C)C)[C@@H](C)CC` [Example 58] (H-Y[Aib]EGTFISDYSI[αMeL]LDKK([AEEA-AEEA-γGlu-C20 diacid])HQ[Aib]EFVE[4Pal]LLATGPSSGAPPPS-NH2), the pKi on human GLP-1R was 6.34. The EC50 in experiment [1] is over 5000 nM.

Regarding `CC[C@H](C)[C@H](NC(=O)[C@H](Cc1ccccc1)NC(=O)[C@@H](NC(=O)CNC(=O)[C@H](CCC(=O)O)NC(=O)C(C)(C)NC(=O)[C@@H](N)Cc1ccc(O)cc1)[C@@H](C)O)C(=O)N[C@@H](CO)C(=O)N[C@@H](CC(=O)O)C(=O)N[C@@H](Cc1ccc(O)cc1)C(=O)N[C@@H](CO)C(=O)N[C@H](C(=O)N[C@@](C)(CC(C)C)C(=O)N[C@@H](CC(C)C)C(=O)N[C@@H](CC(=O)O)C(=O)N[C@@H](CCCCN)C(=O)N[C@@H](CCCCNC(=O)COCCOCCNC(=O)COCCOCCNC(=O)CC[C@H](NC(=O)CCCCCCCCCCCCCCCCCCC(=O)O)C(=O)O)C(=O)N[C@@H](Cc1c[nH]cn1)C(=O)N[C@@H](CCC(N)=O)C(=O)NC(C)(C)C(=O)N[C@@H](CCC(=O)O)C(=O)N[C@@H](Cc1ccccc1)C(=O)N[C@H](C(=O)N[C@@H](CCC(=O)O)C(=O)N[C@@H](Cc1ccncc1)C(=O)N[C@@H](CC(C)C)C(=O)N[C@@H](CC(C)C)C(=O)N[C@@H](C)C(=O)N[C@@H](C)C(=O)NCC(=O)N1CCC[C@H]1C(=O)N[C@@H](CO)C(=O)N[C@@H](CO)C(=O)NCC(=O)N[C@@H](C)C(=O)N1CCC[C@H]1C(=O)N1CCC[C@H]1C(=O)N1CCC[C@H]1C(=O)N[C@@H](CO)C(N)=O)C(C)C)[C@@H](C)CC` [Example 59], the negative logarithm of the Ki (pKi) on human GLP-1R was 6.96. For the same compound, the concentration giving a half-maximal response (EC50) in experiment [1] was over 5000 nM.

As for `CC[C@H](C)[C@H](NC(=O)[C@H](CO)NC(=O)[C@H](Cc1ccc(O)cc1)NC(=O)[C@H](CC(=O)O)NC(=O)[C@H](CO)NC(=O)[C@@H](NC(=O)[C@](C)(Cc1ccccc1)NC(=O)[C@@H](NC(=O)CNC(=O)[C@H](CCC(=O)O)NC(=O)C(C)(C)NC(=O)[C@@H](N)Cc1ccc(O)cc1)[C@@H](C)O)[C@@H](C)CC)C(=O)N[C@@](C)(CC(C)C)C(=O)N[C@@H](CC(C)C)C(=O)N[C@@H](CC(=O)O)C(=O)N[C@@H](CCCCN)C(=O)N[C@@H](CCCCNC(=O)COCCOCCNC(=O)COCCOCCNC(=O)CC[C@H](NC(=O)CCCCCCCCCCCCCCCCCCC(=O)O)C(=O)O)C(=O)N[C@@H](Cc1c[nH]cn1)C(=O)N[C@@H](CCC(N)=O)C(=O)NC(C)(C)C(=O)N[C@@H](CCC(=O)O)C(=O)N[C@@H](Cc1ccccc1)C(=O)N[C@H](C(=O)N[C@@H](CCC(=O)O)C(=O)N[C@@H](Cc1ccncc1)C(=O)N[C@@H](CC(C)C)C(=O)N[C@@H](CC(C)C)C(=O)N[C@@H](C)C(=O)N[C@@H](CCC(N)=O)C(=O)NCC(=O)N1CCC[C@H]1C(=O)N[C@@H](CO)C(=O)N[C@@H](CO)C(=O)NCC(=O)N[C@@H](C)C(=O)N1CCC[C@H]1C(=O)N1CCC[C@H]1C(=O)N1CCC[C@H]1C(=O)N[C@@H](CO)C(N)=O)C(C)C` [Example 60] (H-Y[Aib]EGT[αMeF]ISDYSI[αMeL]LDKK([AEEA-AEEA-γGlu-C20 diacid])HQ[Aib]EFVE[4Pal]LLAQGPSSGAPPPS-NH2), the pKi on human GLP-1R is 7.29. The EC50 in experiment [1] is over 5000 nM.

In the case of `CC[C@H](C)[C@H](NC(=O)[C@H](CO)NC(=O)[C@H](Cc1ccc(O)cc1)NC(=O)[C@H](CC(=O)O)NC(=O)[C@H](CO)NC(=O)[C@@H](NC(=O)[C@](C)(Cc1ccccc1)NC(=O)[C@@H](NC(=O)CNC(=O)[C@H](CCC(=O)O)NC(=O)C(C)(C)NC(=O)[C@@H](N)Cc1ccc(O)cc1)[C@@H](C)O)[C@@H](C)CC)C(=O)N[C@@](C)(CC(C)C)C(=O)N[C@@H](CC(C)C)C(=O)N[C@@H](CC(=O)O)C(=O)N[C@@H](CCCCN)C(=O)N[C@@H](CCCCNC(=O)COCCOCCNC(=O)COCCOCCNC(=O)CC[C@H](NC(=O)CCCCCCCCCCCCCCCCCCC(=O)O)C(=O)O)C(=O)N[C@@H](Cc1c[nH]cn1)C(=O)N[C@@H](CCC(N)=O)C(=O)NC(C)(C)C(=O)N[C@@H](CCC(=O)O)C(=O)N[C@@H](Cc1ccccc1)C(=O)N[C@H](C(=O)N[C@@H](CCC(=O)O)C(=O)N[C@@H](Cc1ccncc1)C(=O)N[C@@H](CC(C)C)C(=O)N[C@@H](CC(C)C)C(=O)N[C@@H](C)C(=O)N[C@H](C(=O)NCC(=O)N1CCC[C@H]1C(=O)N[C@@H](CO)C(=O)N[C@@H](CO)C(=O)NCC(=O)N[C@@H](C)C(=O)N1CCC[C@H]1C(=O)N1CCC[C@H]1C(=O)N1CCC[C@H]1C(=O)N[C@@H](CO)C(N)=O)[C@@H](C)O)C(C)C` [Example 61] (H-Y[Aib]EGT[αMeF]ISDYSI[αMeL]LDKK([AEEA-AEEA-γGlu-C20 diacid])HQ[Aib]EFVE[4Pal]LLATGPSSGAPPPS-NH2), the pKi at human GLP-1R is 6.87. Also, the EC50 in experiment [1] was over 5000 nM.

As for `CC[C@H](C)[C@H](NC(=O)[C@H](CO)NC(=O)[C@H](Cc1ccc(O)cc1)NC(=O)[C@H](CC(=O)O)NC(=O)[C@H](CO)NC(=O)[C@@H](NC(=O)[C@](C)(Cc1ccccc1)NC(=O)[C@@H](NC(=O)CNC(=O)[C@H](CCC(=O)O)NC(=O)C(C)(C)NC(=O)[C@@H](N)Cc1ccc(O)cc1)[C@@H](C)O)[C@@H](C)CC)C(=O)N[C@@](C)(CC(C)C)C(=O)N[C@@H](CC(C)C)C(=O)N[C@@H](CC(=O)O)C(=O)N[C@@H](CCCCN)C(=O)N[C@@H](CCCCNC(=O)COCCOCCNC(=O)COCCOCCNC(=O)CC[C@H](NC(=O)CCCCCCCCCCCCCCCCCCC(=O)O)C(=O)O)C(=O)N[C@@H](Cc1c[nH]cn1)C(=O)N[C@@H](CCC(N)=O)C(=O)NC(C)(C)C(=O)N[C@@H](CCC(=O)O)C(=O)N[C@@H](Cc1ccccc1)C(=O)N[C@H](C(=O)N[C@@H](CCC(=O)O)C(=O)N[C@@H](Cc1ccncc1)C(=O)N[C@@H](CC(C)C)C(=O)N[C@@H](CC(C)C)C(=O)N[C@@H](C)C(=O)N[C@@H](C)C(=O)NCC(=O)N1CCC[C@H]1C(=O)N[C@@H](CO)C(=O)N[C@@H](CO)C(=O)NCC(=O)N[C@@H](C)C(=O)N1CCC[C@H]1C(=O)N1CCC[C@H]1C(=O)N1CCC[C@H]1C(=O)N[C@@H](CO)C(N)=O)C(C)C` [Example 62] (H-Y[Aib]EGT[αMeF]ISDYSI[αMeL]LDKK([AEEA-AEEA-γGlu-C20 diacid])HQ[Aib]EFVE[4Pal]LLAAGPSSGAPPPS-NH2), the pKi at human GLP-1R was 7.32. Also, the 50% effective concentration (EC50) in experiment [1] was over 5000 nM.

As to `CC[C@H](C)[C@H](NC(=O)[C@H](Cc1ccccc1)NC(=O)[C@@H](NC(=O)CNC(=O)[C@H](CCC(=O)O)NC(=O)C(C)(C)NC(=O)[C@@H](N)Cc1ccc(O)cc1)[C@@H](C)O)C(=O)N[C@@H](CO)C(=O)N[C@@H](CC(=O)O)C(=O)N[C@@H](Cc1ccc(O)cc1)C(=O)N[C@@H](CO)C(=O)N[C@H](C(=O)N[C@@](C)(CC(C)C)C(=O)N[C@@H](CC(C)C)C(=O)N[C@@H](CC(=O)O)C(=O)N[C@@H](CCCCN)C(=O)N[C@@H](CCCCNC(=O)COCCOCCNC(=O)COCCOCCNC(=O)CC[C@H](NC(=O)CCCCCCCCCCCCCCCCCCC(=O)O)C(=O)O)C(=O)N[C@@H](Cc1c[nH]cn1)C(=O)N[C@@H](CCC(N)=O)C(=O)NC(C)(C)C(=O)N[C@@H](CCC(=O)O)C(=O)N[C@@H](Cc1ccccc1)C(=O)N[C@H](C(=O)N[C@@H](CCC(=O)O)C(=O)N[C@@H](Cc1ccc(O)cc1)C(=O)N[C@@H](CC(C)C)C(=O)N[C@@H](CC(C)C)C(=O)N[C@@H](CCC(=O)O)C(=O)N[C@@H](CCC(N)=O)C(=O)NCC(=O)N1CCC[C@H]1C(=O)N[C@@H](CO)C(=O)N[C@@H](CO)C(=O)NCC(=O)N[C@@H](C)C(=O)N1CCC[C@H]1C(=O)N1CCC[C@H]1C(=O)N1CCC[C@H]1C(=O)N[C@@H](CO)C(N)=O)C(C)C)[C@@H](C)CC` [Example 63] (H-Y[Aib]EGTFISDYSI[αMeL]LDKK([AEEA-AEEA-γGlu-C20 diacid])HQ[Aib]EFVEYLLEQGPSSGAPPPS-NH2), the negative logarithm of the Ki (pKi) at human GLP-1R is 6.49. The EC50 in experiment [1] amounted to 1170 nM.
